# Assays:
# [1] = tested on: Diamond back moth; assay: insecticidal activity against diamond back moth, airbrush spray; type: in vivo
# Summary of the method: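 Airbrush leaf-disc spray test: both faces of 2 cm cabbage discs received 0.5 ml of test solution at 0.7 kg/cm^2. Solutions were made in acetone:methanol (1:1) and brought to concentration with 0.1% Tween 80 in water. Ten second-instar larvae per disc, triplicates, were held at 25° C and 60˜70% R.H., with mortality recorded at 72 hrs.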
# [2] = tested on: armyworm; assay: bioactivity test against armyworm, airbrush spray; type: in vivo
# [3] = tested on: Green peach aphids (Myzus Persicae Sulzer); assay: bioactivity test against green peach aphid, airbrush foliar spray; type: in vivo
# Summary of the method: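 Death rate was scored at 48 hrs, held at 25±1 C and 60±5% RH, following airbrush foliar spray (0.5 mL, 10 psi) onto cabbage leaf discs bearing about 15-30 aphids. Test solutions: compound dissolved in 1:1 acetone:methanol, brought to concentration with 0.1% tween 80 water.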
# [4] = tested on: carmine spider mite; assay: bioactivity test against carmine spider mite, airbrush spray; type: in vivo
# Summary of the method: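 Broadbean seedlings infested with adult mites were sprayed with compound (acetone/methanol stock diluted in 0.1% Tween 80 water) by airbrush at 0.7 kg/cm^2, 0.5 ml. Three replicates were run. Mortality was scored after 72 hrs.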
# [5] = tested on: corn rust; assay: protectant activity in vivo against corn rust
# [6] = tested on: wheat powdery mildew; assay: protectant activity in vivo against wheat powdery mildew
# [7] = tested on: cucumber downy mildew; assay: protectant activity in vivo against cucumber downy mildew
# [8] = 100 ppm, mortality after 72 hrs
# [9] = 600 ppm, mortality after 72 hrs
smiles,measurement,setting,value
Cc1ncnc(NCCc2ccc(Oc3ccc(C#N)cc3F)cc2)c1Cl [II-204],Insecticidal activity against diamond back moth (%),[1]; 10 mg/L,20%
same,Insecticidal activity against diamond back moth (%),[1]; 100 mg/L,100%
same,Insecticidal activity against diamond back moth (%),[1]; 600 mg/L,100%
same,control (test results against diamond back moth),[1]; [8],100%
same,control (test results against diamond back moth),[1]; [9],100%
same,Insecticidal activity against armyworm (%),[2]; 10 mg/L,47%
same,Insecticidal activity against armyworm (%),[2]; 100 mg/L,100%
same,Insecticidal activity against armyworm (%),[2]; 600 mg/L,100%
same,control (test results against armyworm),"[2]; 100 ppm, mortality after 72 h",100%
same,control (test results against armyworm),"[2]; 600 ppm, mortality after 72 h",100%
same,Insecticidal activity against peach aphid (%),"[3]; 1.25 mg/L, contrastive test",60%
same,Insecticidal activity against peach aphid (%),"[3]; 2.5 mg/L, contrastive test",97%
same,Insecticidal activity against peach aphid (%),"[3]; 5 mg/L, contrastive test",100%
same,Insecticidal activity against peach aphid (%),"[3]; 10 mg/L, contrastive test",100%
same,Insecticidal activity against peach aphid (%),"[3]; 100 mg/L, contrastive test",100%
same,Insecticidal activity against peach aphid (%),"[3]; 600 mg/L, contrastive test",100%
same,control (test results against green peach aphid),"[3]; 5 ppm, death rate after 48 hrs",100%
same,control (test results against green peach aphid),"[3]; 10 ppm, death rate after 48 hrs",100%
same,control (test results against green peach aphid),"[3]; 100 ppm, death rate after 48 hrs",100%
same,control (test results against green peach aphid),"[3]; 600 ppm, death rate after 48 hrs",100%
same,Insecticidal activity against carmine spider mite (% ),[4]; 2.5 mg/L,60%
same,Insecticidal activity against carmine spider mite (% ),[4]; 5 mg/L,80%
same,Insecticidal activity against carmine spider mite (% ),"[4]; 10 mg/L, contrastive test",100%
same,Insecticidal activity against carmine spider mite (% ),"[4]; 100 mg/L, contrastive test",100%
same,Insecticidal activity against carmine spider mite (% ),"[4]; 600 mg/L, contrastive test",100%
same,control against carmine spider mite,"[4]; 10 ppm, mortality after 72 hrs",100%
same,control against carmine spider mite,[4]; [8],100%
same,control against carmine spider mite,[4]; [9],100%
same,protectant activity against corn rust in vivo,[5]; 25 ppm,100%
same,protectant activity against corn rust in vivo,[5]; 100 ppm,100%
same,protectant activity against corn rust in vivo,[5]; 400 ppm,100%
same,control effect against wheat powdery mildew (%),"[6]; 6.25 mg/L, protectant activity",100%
same,control effect against wheat powdery mildew (%),"[6]; 25 mg/L, protectant activity",100%
same,control effect against wheat powdery mildew (%),"[6]; 100 mg/L, protectant activity",100%
same,control effect against wheat powdery mildew (%),"[6]; 400 mg/L, protectant activity",100%
same,protectant activity against wheat powdery mildew in vivo,[6]; 6.25 ppm,100%
same,protectant activity against wheat powdery mildew in vivo,[6]; 25 ppm,100%
same,protectant activity against wheat powdery mildew in vivo,[6]; 100 ppm,100%
same,protectant activity against wheat powdery mildew in vivo,[6]; 400 ppm,100%
same,protectant activity against cucumber downy mildew in vivo,[7]; 25 ppm,100%
same,protectant activity against cucumber downy mildew in vivo,[7]; 50 ppm,100%
same,protectant activity against cucumber downy mildew in vivo,[7]; 100 ppm,100%
same,protectant activity against cucumber downy mildew in vivo,[7]; 400 ppm,100%
CCc1ncnc(NCCc2ccc(Oc3ccc(Cl)cc3)cc2)c1Cl [II-297],pest or weed control at 600 ppm,"[1]; 72 h, 600 ppm, mortality after 72 hrs, read-out: control (test results against diamond back moth)",100%
same,pest or weed control at 10 µg/mL,"[2]; 72 h, 10 mg/L, read-out: Insecticidal activity against armyworm (%)",30%
same,pest or weed control at 100 µg/mL,"[2]; 72 h, 100 mg/L, read-out: Insecticidal activity against armyworm (%)",95%
same,pest or weed control at 600 µg/mL,"[2]; 72 h, 600 mg/L, read-out: Insecticidal activity against armyworm (%)",100%
same,pest or weed control at 100 ppm,"[2]; 72 h, 100 ppm, mortality after 72 h",80 to 99%
same,pest or weed control at 600 ppm,"[2]; 72 h, 600 ppm, mortality after 72 h",100%
same,pest or weed control at 1.25 µg/mL,"[3]; Myzus persicae, foliar, 48 h, 1.25 mg/L, contrastive test, read-out: Insecticidal activity against peach aphid (%)",93%
same,pest or weed control at 2.5 µg/mL,"[3]; Myzus persicae, foliar, 48 h, 2.5 mg/L, contrastive test, read-out: Insecticidal activity against peach aphid (%)",100%
same,pest or weed control at 5 µg/mL,"[3]; Myzus persicae, foliar, 48 h, 5 mg/L, contrastive test, read-out: Insecticidal activity against peach aphid (%)",100%
same,pest or weed control at 10 µg/mL,"[3]; Myzus persicae, foliar, 48 h, 10 mg/L, contrastive test, read-out: Insecticidal activity against peach aphid (%)",100%
same,pest or weed control at 100 µg/mL,"[3]; Myzus persicae, foliar, 48 h, 100 mg/L, contrastive test, read-out: Insecticidal activity against peach aphid (%)",100%
same,pest or weed control at 600 µg/mL,"[3]; Myzus persicae, foliar, 48 h, 600 mg/L, contrastive test, read-out: Insecticidal activity against peach aphid (%)",100%
same,pest or weed control at 2.5 ppm,"[3]; Myzus persicae, foliar, 48 h, 2.5 ppm, death rate after 48 hrs",100%
same,pest or weed control at 5 ppm,"[3]; Myzus persicae, foliar, 48 h, 5 ppm, death rate after 48 hrs",100%
same,pest or weed control at 10 ppm,"[3]; Myzus persicae, foliar, 48 h, 10 ppm, death rate after 48 hrs",100%
same,pest or weed control at 100 ppm,"[3]; Myzus persicae, foliar, 48 h, 100 ppm, death rate after 48 hrs",100%
same,pest or weed control at 600 ppm,"[3]; Myzus persicae, foliar, 48 h, 600 ppm, death rate after 48 hrs",100%
same,pest or weed control at 10 µg/mL,"[4]; Tetranychus cinnabarinus, 72 h, 10 mg/L, contrastive test, read-out: Insecticidal activity against carmine spider mite (% )",74%
same,pest or weed control at 100 µg/mL,"[4]; Tetranychus cinnabarinus, 72 h, 100 mg/L, contrastive test, read-out: Insecticidal activity against carmine spider mite (% )",100%
same,pest or weed control at 600 µg/mL,"[4]; Tetranychus cinnabarinus, 72 h, 600 mg/L, contrastive test, read-out: Insecticidal activity against carmine spider mite (% )",100%
same,pest or weed control at 100 ppm,"[4]; Tetranychus cinnabarinus, 72 h, 100 ppm, mortality after 72 hrs",100%
same,pest or weed control at 600 ppm,"[4]; Tetranychus cinnabarinus, 72 h, 600 ppm, mortality after 72 hrs",100%
same,pest or weed control at 6.25 ppm,"[5]; Zea mays, 168 h, read-out: protectant activity against corn rust in vivo, 6.25 ppm",80 to 99%
same,pest or weed control at 25 ppm,"[5]; Zea mays, 168 h, read-out: protectant activity against corn rust in vivo, 25 ppm",80 to 99%
same,pest or weed control at 100 ppm,"[5]; Zea mays, 168 h, read-out: protectant activity against corn rust in vivo, 100 ppm",100%
same,pest or weed control at 400 ppm,"[5]; Zea mays, 168 h, read-out: protectant activity against corn rust in vivo, 400 ppm",100%
same,pest or weed control at 0.4 µg/mL,"[6]; Triticum aestivum, 168 h, read-out: control effect against wheat powdery mildew (%), 0.4 mg/L, protectant activity",30%
same,pest or weed control at 1.6 µg/mL,"[6]; Triticum aestivum, 168 h, read-out: control effect against wheat powdery mildew (%), 1.6 mg/L, protectant activity",40%
same,pest or weed control at 6.25 µg/mL,"[6]; Triticum aestivum, 168 h, read-out: control effect against wheat powdery mildew (%), 6.25 mg/L, protectant activity",90%
same,pest or weed control at 25 µg/mL,"[6]; Triticum aestivum, 168 h, read-out: control effect against wheat powdery mildew (%), 25 mg/L, protectant activity",100%
same,pest or weed control at 100 µg/mL,"[6]; Triticum aestivum, 168 h, read-out: control effect against wheat powdery mildew (%), 100 mg/L, protectant activity",100%
same,pest or weed control at 400 µg/mL,"[6]; Triticum aestivum, 168 h, read-out: control effect against wheat powdery mildew (%), 400 mg/L, protectant activity",100%
same,pest or weed control at 6.25 ppm,"[6]; Triticum aestivum, 168 h, read-out: protectant activity against wheat powdery mildew in vivo, 6.25 ppm",80 to 99%
same,pest or weed control at 25 ppm,"[6]; Triticum aestivum, 168 h, read-out: protectant activity against wheat powdery mildew in vivo, 25 ppm",100%
same,pest or weed control at 100 ppm,"[6]; Triticum aestivum, 168 h, read-out: protectant activity against wheat powdery mildew in vivo, 100 ppm",100%
same,pest or weed control at 400 ppm,"[6]; Triticum aestivum, 168 h, read-out: protectant activity against wheat powdery mildew in vivo, 400 ppm",100%
same,pest or weed control at 25 µg/mL,"[7]; Cucumis sativus, 168 h, read-out: control effect against cucumber downy mildew (%), 25 mg/L, protectant activity",100%
same,pest or weed control at 50 µg/mL,"[7]; Cucumis sativus, 168 h, read-out: control effect against cucumber downy mildew (%), 50 mg/L, protectant activity",100%
same,pest or weed control at 100 µg/mL,"[7]; Cucumis sativus, 168 h, read-out: control effect against cucumber downy mildew (%), 100 mg/L, protectant activity",100%
same,pest or weed control at 400 µg/mL,"[7]; Cucumis sativus, 168 h, read-out: control effect against cucumber downy mildew (%), 400 mg/L, protectant activity",100%
same,pest or weed control at 25 ppm,"[7]; Cucumis sativus, 168 h, read-out: protectant activity against cucumber downy mildew in vivo, 25 ppm",100%
same,pest or weed control at 50 ppm,"[7]; Cucumis sativus, 168 h, read-out: protectant activity against cucumber downy mildew in vivo, 50 ppm",100%
same,pest or weed control at 100 ppm,"[7]; Cucumis sativus, 168 h, read-out: protectant activity against cucumber downy mildew in vivo, 100 ppm",100%
same,pest or weed control at 400 ppm,"[7]; Cucumis sativus, 168 h, read-out: protectant activity against cucumber downy mildew in vivo, 400 ppm",100%

# — US9770026B2, “Substituted pyrimidine compound and uses thereof” (Shenyang Sinochem Agrochemicals R&D Co., Ltd., priority 2012, dated 2017)
